Data from patent publication US12065436B2, “Cardiac sarcomere inhibitors” (Cytokinetics, Inc., priority 2018, dated 2024).

Molecular target: bovine cardiac myofibrils (full-length cardiac myosin ATPase in the native sarcomere) (Bos taurus (Bovine), UniProt Q9BE39)
Test: Skinned bovine cardiac myofibril ATPase assay (PK/LDH-coupled)
Assay type: biochemical
Settings: Ca2+ activating to 75% of maximal rate; for CDMF75 IC15: concentration giving 15% inhibition; for IC50: read-out: CDMF75 IC50
Outline: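 Triton-skinned bovine left-ventricle myofibrils (1 mg/mL) in PM 12 buffer (12 mM PIPES, 2 mM MgCl2, pH 6.8) with 50 μM ATP, 0.6 mM EGTA and CaCl2 set for 50% or 75% activation. Steady-state ATPase inhibition followed by PK/LDH-coupled NADH oxidation at 340 nm.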

Chain of bovine cardiac myofibrils (full-length cardiac myosin ATPase in the native sarcomere) (Q9BE39 whole entry): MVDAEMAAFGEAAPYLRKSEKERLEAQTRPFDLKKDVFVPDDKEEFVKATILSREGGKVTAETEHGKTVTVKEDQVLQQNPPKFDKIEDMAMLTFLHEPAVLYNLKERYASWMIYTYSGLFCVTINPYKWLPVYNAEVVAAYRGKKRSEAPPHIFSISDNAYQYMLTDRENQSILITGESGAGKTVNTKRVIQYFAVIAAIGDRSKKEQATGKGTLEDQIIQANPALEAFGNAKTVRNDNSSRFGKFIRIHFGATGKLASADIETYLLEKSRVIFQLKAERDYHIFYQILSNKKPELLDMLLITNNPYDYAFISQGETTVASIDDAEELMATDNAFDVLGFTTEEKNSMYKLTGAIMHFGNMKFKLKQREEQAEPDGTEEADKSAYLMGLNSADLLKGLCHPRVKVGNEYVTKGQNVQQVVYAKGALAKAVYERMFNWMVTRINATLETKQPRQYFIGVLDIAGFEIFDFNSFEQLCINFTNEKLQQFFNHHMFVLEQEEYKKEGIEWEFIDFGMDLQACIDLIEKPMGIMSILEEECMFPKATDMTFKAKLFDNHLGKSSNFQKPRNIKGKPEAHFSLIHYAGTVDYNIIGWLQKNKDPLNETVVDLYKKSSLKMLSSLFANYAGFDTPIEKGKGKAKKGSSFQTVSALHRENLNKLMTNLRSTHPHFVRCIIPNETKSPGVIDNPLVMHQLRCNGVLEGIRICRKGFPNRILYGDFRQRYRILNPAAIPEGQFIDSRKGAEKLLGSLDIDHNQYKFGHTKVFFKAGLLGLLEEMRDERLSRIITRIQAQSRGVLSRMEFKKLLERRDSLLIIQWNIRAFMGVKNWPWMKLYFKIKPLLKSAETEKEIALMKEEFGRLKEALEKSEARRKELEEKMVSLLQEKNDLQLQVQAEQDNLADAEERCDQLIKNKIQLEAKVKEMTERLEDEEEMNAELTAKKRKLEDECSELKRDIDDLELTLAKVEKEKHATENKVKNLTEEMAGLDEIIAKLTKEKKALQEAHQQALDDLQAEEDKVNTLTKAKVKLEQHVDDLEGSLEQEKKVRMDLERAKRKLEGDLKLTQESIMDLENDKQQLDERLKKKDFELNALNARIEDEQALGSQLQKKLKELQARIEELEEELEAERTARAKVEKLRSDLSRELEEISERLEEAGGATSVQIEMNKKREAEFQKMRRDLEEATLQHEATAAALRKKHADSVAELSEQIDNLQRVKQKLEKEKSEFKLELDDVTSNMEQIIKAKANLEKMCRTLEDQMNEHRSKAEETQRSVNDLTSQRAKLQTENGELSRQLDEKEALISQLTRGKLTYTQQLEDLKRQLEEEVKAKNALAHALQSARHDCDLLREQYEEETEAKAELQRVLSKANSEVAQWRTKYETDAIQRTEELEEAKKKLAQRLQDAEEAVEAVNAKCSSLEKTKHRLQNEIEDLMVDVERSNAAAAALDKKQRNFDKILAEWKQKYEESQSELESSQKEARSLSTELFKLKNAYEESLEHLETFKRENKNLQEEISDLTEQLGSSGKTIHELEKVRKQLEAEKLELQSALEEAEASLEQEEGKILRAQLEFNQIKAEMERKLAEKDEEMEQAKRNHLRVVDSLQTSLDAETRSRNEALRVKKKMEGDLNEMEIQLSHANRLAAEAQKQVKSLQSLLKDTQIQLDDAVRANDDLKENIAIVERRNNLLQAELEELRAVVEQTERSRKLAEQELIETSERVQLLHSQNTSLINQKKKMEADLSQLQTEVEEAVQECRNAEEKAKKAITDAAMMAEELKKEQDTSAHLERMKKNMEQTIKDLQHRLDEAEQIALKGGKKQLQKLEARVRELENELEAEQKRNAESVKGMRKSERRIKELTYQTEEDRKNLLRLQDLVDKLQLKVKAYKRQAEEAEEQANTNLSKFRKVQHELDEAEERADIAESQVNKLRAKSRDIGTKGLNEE
Chain of bovine cardiac myofibrils (full-length cardiac myosin ATPase in the native sarcomere) (P85100 whole entry partner): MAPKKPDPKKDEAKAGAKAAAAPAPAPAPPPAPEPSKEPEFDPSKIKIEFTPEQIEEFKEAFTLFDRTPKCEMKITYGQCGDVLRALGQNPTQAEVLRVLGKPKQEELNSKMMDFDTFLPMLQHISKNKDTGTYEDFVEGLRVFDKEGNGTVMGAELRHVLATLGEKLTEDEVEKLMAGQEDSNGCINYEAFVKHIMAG
Chain of bovine cardiac myofibrils (full-length cardiac myosin ATPase in the native sarcomere) (Q3SZE5 whole entry partner): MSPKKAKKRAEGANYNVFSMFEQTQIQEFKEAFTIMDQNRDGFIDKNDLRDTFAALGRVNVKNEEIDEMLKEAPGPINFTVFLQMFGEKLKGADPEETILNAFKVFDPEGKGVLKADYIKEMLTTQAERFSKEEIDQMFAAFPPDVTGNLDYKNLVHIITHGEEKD

CDMF75 IC15 | IC50 | SMILES
0.4 µM | 1.9 µM | O=C(N[C@@H]1COc2cc(-c3noc(C(F)F)n3)ccc21)c1ccnc(CO)c1 [Compound 710, (S)-N-(6-(5-(difluoromethyl)-1,2,4-oxadiazol-3-yl)-2,3-dihydrobenzofuran-3-yl)-2-(hydroxymethyl)isonicotinamide]
1.7 µM | 7.5 µM | CCc1nc(-c2cc3c(cc2F)[C@H](NC(=O)c2cnn(C)c2)CC3)no1 [Compound 699, (R)-N-(5-(5-ethyl-1,2,4-oxadiazol-3-yl)-6-fluoro-2,3-dihydro-1H-inden-1-yl)-1-methyl-1H-pyrazole-4-carboxamide]
0.3 µM | 1.2 µM | Cc1nn(C)cc1C(=O)N[C@@H]1CCc2cc(-c3noc(C4CCC4)n3)ccc21 [Compound 150, (R)-N-(5-(5-cyclobutyl-1,2,4-oxadiazol-3-yl)-2,3-dihydro-1H-inden-1-yl)-1,3-dimethyl-1H-pyrazole-4-carboxamide]
5.2 µM | 24 µM | CCc1nc(-c2cnc3c(c2)CCC3NC(=O)c2ccnc(C)c2)no1 (centres unmarked) [Compound 108, N-(3-(5-ethyl-1,2,4-oxadiazol-3-yl)-6,7-dihydro-5H-cyclopenta[b]pyridin-7-yl)-2-methylisonicotinamide]
1.4 µM | 4.8 µM | Cc1nc(-c2ccc3c(c2)CCC3NC(=O)c2c[nH]nc2C)no1 (centres unmarked) [Compound 70, 3-methyl-N-(5-(5-methyl-1,2,4-oxadiazol-3-yl)-2,3-dihydro-1H-inden-1-yl)-1H-pyrazole-4-carboxamide]
0.9 µM | 3.2 µM | Cc1cccc(-c2ccc3c(c2)CC[C@H]3NC(=O)c2ccnn2C)c1 [Compound 373, (R)-1-methyl-N-(5-(m-tolyl)-2,3-dihydro-1H-inden-1-yl)-1H-pyrazole-5-carboxamide]
0.3 µM | 1 µM | CCc1nc(-c2ccc3c(c2)CC[C@H]3NC(=O)c2ccncc2)no1 [Compound 628, (R)-N-(5-(5-ethyl-1,2,4-oxadiazol-3-yl)-2,3-dihydro-1H-inden-1-yl)isonicotinamide]
0.4 µM | 1.5 µM | Cc1cc(-c2ccc3c(c2)CC[C@H]3NC(=O)c2nnn(C)n2)no1 [Compound 252, (R)-2-methyl-N-(5-(5-methylisoxazol-3-yl)-2,3-dihydro-1H-inden-1-yl)-2H-tetrazole-5-carboxamide]
1.4 µM | 5.7 µM | CCc1nc(-c2ccc3c(c2)CC[C@H]3NC(=O)c2ccn(CCO)c(=O)c2)no1 [Compound 559, (R)-N-(5-(5-ethyl-1,2,4-oxadiazol-3-yl)-2,3-dihydro-1H-inden-1-yl)-1-(2-hydroxyethyl)-2-oxo-1,2-dihydropyridine-4-carboxamide]
0.4 µM | 1.5 µM | CCc1cc(-c2ccc3c(c2)OC[C@H]3NC(=O)c2cnc(C)o2)no1 [Compound 422, (S)-N-(6-(5-ethylisoxazol-3-yl)-2,3-dihydrobenzofuran-3-yl)-2-methyloxazole-5-carboxamide]
18.8 µM | > 39.2 µM | CCc1nc(-c2ccc3c(c2)CC[C@H]3NC(=O)[C@@H]2CCNC(=O)C2)no1 [Compound 351, (R)-N-((R)-5-(5-ethyl-1,2,4-oxadiazol-3-yl)-2,3-dihydro-1H-inden-1-yl)-2-oxopiperidine-4-carboxamide]

The remaining lines, values behind:

SMILES | CDMF75 IC15 | IC50
CCc1nc(-c2ccc3c(c2)CC[C@H]3NC(=O)c2cnn(C(C)CO)c2)no1 (stereo partly drawn) [Compound 533, N-((R)-5-(5-ethyl-1,2,4-oxadiazol-3-yl)-2,3-dihydro-1H-inden-1-yl)-1-(1-hydroxypropan-2-yl)-1H-pyrazole-4-carboxamide] | 1.5 µM | 8.7 µM
Cc1cccnc1C(=O)NC1CCc2cc(-c3noc(C(F)F)n3)ccc21 (centres unmarked) [Compound 58, N-(5-(5-(difluoromethyl)-1,2,4-oxadiazol-3-yl)-2,3-dihydro-1H-inden-1-yl)-3-methylpicolinamide] | 4.8 µM | 21 µM
Cc1nc(-c2ccc3c(c2)OCC3NC(=O)c2cnn(C)c2)no1 (centres unmarked) [Compound 212, 1-methyl-N-(6-(5-methyl-1,2,4-oxadiazol-3-yl)-2,3-dihydrobenzofuran-3-yl)-1H-pyrazole-4-carboxamide] | 1.7 µM | 6 µM
Cn1cncc1C(=O)NC1CCc2cc(-c3noc(C(F)F)n3)ccc21 (centres unmarked) [Compound 6, N-(5-(5-(difluoromethyl)-1,2,4-oxadiazol-3-yl)-2,3-dihydro-1H-inden-1-yl)-1-methyl-1H-imidazole-5-carboxamide] | 0.7 µM | 3.4 µM
CCc1nc(-c2ccc3c(c2)CC[C@H]3NC(=O)c2cnn(CC(=O)O)c2)no1 [Compound 532, (R)-2-(4-((5-(5-ethyl-1,2,4-oxadiazol-3-yl)-2,3-dihydro-1H-inden-1-yl)carbamoyl)-1H-pyrazol-1-yl)acetic acid] | 1.1 µM | 5.5 µM
Cc1nn(C)cc1C(=O)NC1CCc2cc(-c3noc(C(F)F)n3)ccc21 (centres unmarked) [Compound 28, N-(5-(5-(difluoromethyl)-1,2,4-oxadiazol-3-yl)-2,3-dihydro-1H-inden-1-yl)-1,3-dimethyl-1H-pyrazole-4-carboxamide] | 0.8 µM | 3.4 µM
Cn1nccc1C(=O)N[C@@H]1CCc2cc(-c3noc(C4CC4(C)C)n3)ccc21 (stereo partly drawn) [Compound 460, N-((1R)-5-(5-(2,2-dimethylcyclopropyl)-1,2,4-oxadiazol-3-yl)-2,3-dihydro-1H-inden-1-yl)-1-methyl-1H-pyrazole-5-carboxamide] | 1.3 µM | 5.5 µM
Cn1nccc1C(=O)N[C@H]1COc2cc(-c3noc(C4CC4)n3)ccc21 [Compound 220, (R)-N-(6-(5-cyclopropyl-1,2,4-oxadiazol-3-yl)-2,3-dihydrobenzofuran-3-yl)-1-methyl-1H-pyrazole-5-carboxamide] | 38.3 µM | > 39.2 µM
CCc1nc(-c2ccc3c(c2)CC[C@H]3NC(=O)c2cc(CO)ccc2C)no1 [Compound 651, (R)-N-(5-(5-ethyl-1,2,4-oxadiazol-3-yl)-2,3-dihydro-1H-inden-1-yl)-5-(hydroxymethyl)-2-methylbenzamide] | 4.6 µM | 22.6 µM
Cn1nccc1C(=O)N[C@@H]1CCc2cc(-c3nccs3)ccc21 [Compound 370, (R)-1-methyl-N-(5-(thiazol-2-yl)-2,3-dihydro-1H-inden-1-yl)-1H-pyrazole-5-carboxamide] | 3.8 µM | 19.1 µM
Cc1conc1C(=O)NC1CCc2cc(-c3noc(C(F)F)n3)ccc21 (centres unmarked) [Compound 104, N-(5-(5-(difluoromethyl)-1,2,4-oxadiazol-3-yl)-2,3-dihydro-1H-inden-1-yl)-4-methylisoxazole-3-carboxamide] | 1.7 µM | 6.3 µM
COCc1nc(-c2ccc3c(c2)CC[C@H]3NC(=O)c2conc2C)no1 [Compound 689, (R)-N-(5-(5-(methoxymethyl)-1,2,4-oxadiazol-3-yl)-2,3-dihydro-1H-inden-1-yl)-3-methylisoxazole-4-carboxamide] | 0.6 µM | 2.1 µM
O=C(N[C@@H]1CCc2cc(-c3noc(C(F)F)n3)ccc21)c1cc(CO)ccc1F [Compound 663, (R)-N-(5-(5-(difluoromethyl)-1,2,4-oxadiazol-3-yl)-2,3-dihydro-1H-inden-1-yl)-2-fluoro-5-(hydroxymethyl)benzamide] | 2.3 µM | 19.6 µM
CCc1nc(-c2ccc3c(c2)CC[C@H]3NC(=O)c2nnn(Cc3ccccc3)n2)no1 [Compound 501, (R)-2-benzyl-N-(5-(5-ethyl-1,2,4-oxadiazol-3-yl)-2,3-dihydro-1H-inden-1-yl)-2H-tetrazole-5-carboxamide] | 0.3 µM | 1.1 µM
Cc1c(C(=O)NC2COc3cc(-c4noc(C(F)F)n4)ccc32)cnn1C (centres unmarked) [Compound 209, N-(6-(5-(difluoromethyl)-1,2,4-oxadiazol-3-yl)-2,3-dihydrobenzofuran-3-yl)-1,5-dimethyl-1H-pyrazole-4-carboxamide] | 0.9 µM | 3.3 µM
Cc1nc(-c2ccc3c(c2)CCC3NC(=O)c2cnn(C)n2)no1 (centres unmarked) [Compound 44, 2-methyl-N-(5-(5-methyl-1,2,4-oxadiazol-3-yl)-2,3-dihydro-1H-inden-1-yl)-2H-1,2,3-triazole-4-carboxamide] | 3.3 µM | 12.3 µM
Cn1cc(C(=O)N[C@@H]2CCc3cc(-c4nc(C(F)F)no4)ccc32)cn1 [Compound 276, (R)-N-(5-(3-(difluoromethyl)-1,2,4-oxadiazol-5-yl)-2,3-dihydro-1H-inden-1-yl)-1-methyl-1H-pyrazole-4-carboxamide] | 2.6 µM | 10.1 µM
Cc1c(C(=O)N[C@@H]2CCc3cc(-c4nc(C5CC5)no4)ccc32)cnn1C [Compound 259, (R)-N-(5-(3-cyclopropyl-1,2,4-oxadiazol-5-yl)-2,3-dihydro-1H-inden-1-yl)-1,5-dimethyl-1H-pyrazole-4-carboxamide] | 0.8 µM | 3 µM
O=C(N[C@@H]1CCc2cc(-c3noc(C(F)F)n3)ccc21)N1CCOCC1 [Compound 301, (R)-N-(5-(5-(difluoromethyl)-1,2,4-oxadiazol-3-yl)-2,3-dihydro-1H-inden-1-yl)morpholine-4-carboxamide] | 9.5 µM | > 39.2 µM
Cc1nn(CCO)cc1C(=O)N[C@@H]1CCc2cc(-c3noc(C(F)F)n3)ccc21 [Compound 686, (R)-N-(5-(5-(difluoromethyl)-1,2,4-oxadiazol-3-yl)-2,3-dihydro-1H-inden-1-yl)-1-(2-hydroxyethyl)-3-methyl-1H-pyrazole-4-carboxamide] | 0.9 µM | 3.1 µM
